Experiments:
LKB1 = molecular target: T1, LKB1 (Mus musculus, UniProt Q9WTK7); experiment: Activity of endogenous LKB1 immunoprecipitated from LKB1+/+ MEFs, LKBtide substrate; type: cell-based; conditions: 1 h
T1 construct: AMPKα1/a2 and LKB1 were immunoprecipitated from the cell lysates; endogenous in cells; host or cells: LKB1+/+ MEFs
Procedure: (§1) FIG. 28. […] (A) LKB1^+/+ MEFs were either left untreated or stimulated with the indicated concentrations of phenformin (Phen) for 1 h. AMPKα1/a2 and LKB1 were immunoprecipitated from the cell lysates, and in vitro kinase activity towards the AMARA and LKBtide peptides respectively, were measured as described in Materials and Methods (Example 4). (B) To confirm equal expression of the kinases in each sample, cell lysates were subjected to SDS-PAGE and western blot analysis with the indicated antibodies. The phospho pT172 antibody (P-AMPK) recognises the phosphorylated T-loop of AMPKα1. […] AMPKα1 and the indicated AMPK-related kinases were immunoprecipitated from the cell lysates, and in vitro kinase activity towards the AMARA peptide measured as described in Materials and Methods. […]
Cell culture, stimulation and cell lysis. […] Protein concentrations were determined by the Bradford method with bovine serum albumin as the standard (Bradford, 1976).
0.1-1 mg Hela or MEF cell lysate protein was incubated at 4° C. for 1 h on a shaking platform with 5 μl of protein G-Sepharose conjugated to 5 μg of human LKB1 antibody. […] The p81 membranes were washed in phosphoric acid, and the incorporated radioactivity was measured by scintillation counting as described previously for MAP kinase (Alessi et al., 1995).

AMPKα1 = molecular target: T2, AMPKα1 (Mus musculus, UniProt Q5EG47); experiment: AMPK activity and Thr172 phosphorylation in LKB1+/+ MEFs after drug stimulation; type: cell-based; conditions: 1 h
T2 construct: AMPKα1 and AMPK-related kinases were immunoprecipitated from the cell lysates; endogenous in cells; host or cells: immortalised LKB1+/+ MEFs
Procedure: FIG. 27 Activity of AMPK-related kinases in LKB1+/+ and LKB1^−/− MEFs. LKB1^+/+ or LKB1^−/− MEFs were either left untreated (black bars) or stimulated with 10 mM phenformin (Phen, white bars) for 1 h. AMPKα1 and AMPK-related kinases were immunoprecipitated from the cell lysates, and in vitro kinase activity towards the AMARA peptide was measured as described in Materials and Methods (Example 4). To confirm equal expression of the kinases in each sample, cell lysates (AMPKα1, NUAK2, MARK2/3 and MARK4) or immunoprecipitated proteins (QIK, QSK, SIK and MARK1) were subjected to SDS-PAGE and western blot analysis. All AMPK-related kinases migrated with the expected molecular mass. In the case of AMPKα1, cell lysates were immunoblotted with a phospho Thr172 antibody (P-AMPK), that recognises the phosphorylated T-loop. A control immunoblot of LKB1 levels in cell lysates is also included in panel B. Results shown are average + SD of 2-4 assays and are representative of at least two independent experiments.
as §1, with “AMPKα1. Results are shown as the average ± SD for a triplicate assay and are representative of two independent experiments.” for “AMPKα1.”
Cell culture, stimulation and cell lysis. […] Protein concentrations were determined by the Bradford method with bovine serum albumin as the standard (Bradford, 1976). […]

T2 sequence (Q5EG47 whole entry): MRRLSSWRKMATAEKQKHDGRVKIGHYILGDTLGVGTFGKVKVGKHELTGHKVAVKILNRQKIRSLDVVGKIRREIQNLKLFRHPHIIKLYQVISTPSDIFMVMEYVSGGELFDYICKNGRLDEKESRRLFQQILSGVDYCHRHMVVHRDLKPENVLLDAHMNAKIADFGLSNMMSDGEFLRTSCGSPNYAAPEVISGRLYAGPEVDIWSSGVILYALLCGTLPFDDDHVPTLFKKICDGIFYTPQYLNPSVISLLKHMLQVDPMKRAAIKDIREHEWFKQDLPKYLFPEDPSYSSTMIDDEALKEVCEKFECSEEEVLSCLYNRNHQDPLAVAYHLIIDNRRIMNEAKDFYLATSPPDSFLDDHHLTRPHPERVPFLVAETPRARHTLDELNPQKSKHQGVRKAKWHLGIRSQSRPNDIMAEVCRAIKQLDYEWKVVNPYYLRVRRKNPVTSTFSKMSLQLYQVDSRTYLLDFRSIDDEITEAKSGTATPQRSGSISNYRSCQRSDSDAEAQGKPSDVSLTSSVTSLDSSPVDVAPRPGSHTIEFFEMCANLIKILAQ
T2 sequence (Q9R078 2-270 partner limits assumed): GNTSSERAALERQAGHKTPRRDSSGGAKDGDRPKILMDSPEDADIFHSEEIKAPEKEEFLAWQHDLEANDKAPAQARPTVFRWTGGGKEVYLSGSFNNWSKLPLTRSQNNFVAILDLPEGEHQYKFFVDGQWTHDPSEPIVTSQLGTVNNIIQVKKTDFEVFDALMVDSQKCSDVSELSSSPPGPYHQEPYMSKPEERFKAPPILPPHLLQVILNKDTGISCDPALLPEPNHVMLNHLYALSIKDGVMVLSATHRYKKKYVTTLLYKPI
T2 sequence (O54950 whole entry partner): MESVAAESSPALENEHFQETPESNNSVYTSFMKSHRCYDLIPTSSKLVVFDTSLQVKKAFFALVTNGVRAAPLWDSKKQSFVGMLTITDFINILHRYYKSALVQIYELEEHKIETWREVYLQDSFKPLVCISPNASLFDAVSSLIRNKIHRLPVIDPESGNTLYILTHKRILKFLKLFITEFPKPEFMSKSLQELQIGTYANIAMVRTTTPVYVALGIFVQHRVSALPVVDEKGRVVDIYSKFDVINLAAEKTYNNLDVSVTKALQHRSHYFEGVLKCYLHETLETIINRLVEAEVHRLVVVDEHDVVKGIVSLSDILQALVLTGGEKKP
T1 sequence (Q9WTK7 1-433 limits assumed): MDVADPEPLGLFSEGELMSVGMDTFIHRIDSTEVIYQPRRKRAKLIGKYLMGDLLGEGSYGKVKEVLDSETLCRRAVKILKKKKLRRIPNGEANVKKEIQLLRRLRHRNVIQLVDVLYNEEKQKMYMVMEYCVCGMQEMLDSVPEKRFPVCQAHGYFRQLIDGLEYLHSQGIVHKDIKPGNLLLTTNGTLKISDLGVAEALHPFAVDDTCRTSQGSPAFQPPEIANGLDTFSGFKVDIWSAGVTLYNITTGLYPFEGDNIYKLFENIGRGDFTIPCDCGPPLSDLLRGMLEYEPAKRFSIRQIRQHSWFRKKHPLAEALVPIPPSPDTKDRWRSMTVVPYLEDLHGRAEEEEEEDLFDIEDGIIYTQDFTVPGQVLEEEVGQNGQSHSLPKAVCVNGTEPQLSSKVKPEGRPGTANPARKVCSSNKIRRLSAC
T1 sequence (Q3UUJ4 whole entry partner): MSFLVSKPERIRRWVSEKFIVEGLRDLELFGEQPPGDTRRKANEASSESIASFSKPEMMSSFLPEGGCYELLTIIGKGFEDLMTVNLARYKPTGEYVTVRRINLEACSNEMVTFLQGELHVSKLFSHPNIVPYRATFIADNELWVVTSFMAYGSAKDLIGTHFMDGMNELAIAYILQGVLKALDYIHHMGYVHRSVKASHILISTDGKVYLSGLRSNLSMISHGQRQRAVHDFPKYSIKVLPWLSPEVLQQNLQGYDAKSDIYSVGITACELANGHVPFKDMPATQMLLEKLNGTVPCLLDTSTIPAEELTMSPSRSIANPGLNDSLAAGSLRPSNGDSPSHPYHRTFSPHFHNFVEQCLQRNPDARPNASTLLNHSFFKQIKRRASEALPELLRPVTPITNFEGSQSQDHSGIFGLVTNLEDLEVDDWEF
T1 sequence (Q06138 whole entry partner): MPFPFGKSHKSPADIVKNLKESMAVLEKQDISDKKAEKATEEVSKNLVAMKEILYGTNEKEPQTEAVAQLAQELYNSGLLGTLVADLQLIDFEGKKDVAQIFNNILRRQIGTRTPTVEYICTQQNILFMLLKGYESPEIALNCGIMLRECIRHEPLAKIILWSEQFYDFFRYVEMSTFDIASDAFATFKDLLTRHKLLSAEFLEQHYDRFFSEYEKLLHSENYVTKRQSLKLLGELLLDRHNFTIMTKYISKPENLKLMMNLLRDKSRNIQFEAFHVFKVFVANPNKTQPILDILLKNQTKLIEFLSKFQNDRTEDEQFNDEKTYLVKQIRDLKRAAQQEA

Row | SMILES | LKB1 activity (LKB1) | activation of AMPK (AMPKα1; increasing doses of phenformin) | phosphorylation of Thr172 of AMPK (AMPKα1; increasing doses of phenformin) | activation of AMPK (AMPKα1; 2 mM AICA riboside)
1 | [H]/N=C(/N)N/C(=N/[H])NCCc1ccccc1 [phenformin] | did not stimulate LKB1 activity | progressively activated AMPK | increased the phosphorylation of Thr172 | 
2 | NC(=O)c1ncn([C@@H]2O[C@H](CO)[C@@H](O)[C@H]2O)c1N [AICA riboside, 5-aminoimidazole-4-carboxamide (AICA) riboside] | do not activate LKB1 directly |  |  | activated AMPK

Source: patent US20070036793A1, “Methods for use of an lkb1/strad7mo25 complex” (priority 2003, published 2007)
